Reference: PMC7749107, “Identification and functional characterization of the first molluscan neuromedin U receptor in the slug, Deroceras reticulatum” (Scientific Reports, 2020)
Entries after “also recorded” stand apart in the source; their conditions may differ. Read-outs that look alike come from different tables or passages of the source. Where a SMILES comes first, the peptide text is derived from it.

Assays:
DretNmU-Ra = molecular target: T1, DretNmU-Ra (Deroceras reticulatum, UniProt A0A888YNE3); assay: Calcium mobilisation (FLIPR Calcium 6 fluorescence) receptor activation assay, Sf9 cells stably expressing DretNmU-Ra; assay type: cell-based; settings: for Binding activity (receptor response, ∆fluorescence) at single concentration: 500 nM peptide, three to four replicates, result in words
T1 sequence (A0A888YNE3 1-505): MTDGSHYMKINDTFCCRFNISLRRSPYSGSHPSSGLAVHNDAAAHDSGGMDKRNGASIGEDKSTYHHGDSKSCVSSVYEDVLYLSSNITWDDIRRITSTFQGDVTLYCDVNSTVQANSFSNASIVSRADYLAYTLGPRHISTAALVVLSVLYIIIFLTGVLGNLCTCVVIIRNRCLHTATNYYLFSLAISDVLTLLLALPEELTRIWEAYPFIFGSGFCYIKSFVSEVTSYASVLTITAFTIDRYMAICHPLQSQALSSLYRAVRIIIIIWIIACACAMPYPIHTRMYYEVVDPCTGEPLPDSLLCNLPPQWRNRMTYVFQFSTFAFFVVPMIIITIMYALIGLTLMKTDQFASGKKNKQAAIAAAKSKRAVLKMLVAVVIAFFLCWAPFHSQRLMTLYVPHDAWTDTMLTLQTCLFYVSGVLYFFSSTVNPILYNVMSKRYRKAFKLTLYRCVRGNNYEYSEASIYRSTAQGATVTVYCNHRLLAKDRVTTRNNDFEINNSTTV
Protocol: (§1) Sf9 cells were cultured in a 50 ml-Erlenmeyer flask while shaking at 145 rpm at 28 °C using Insectagro Sf9 Medium (Corning) supplemented with 5% heat-inactivated fetal bovine serum (HyClone, USA) and antibiotics (penicillin and streptomycin; Gibco). Three µg of either pIB/DretNmU-Ra or pIB/DretNmU-Rb plasmid was added to 100 μl of serum-free medium, and 15% CellFectin II (Invitrogen) in 100 μl serum-free medium was prepared, and both were placed at room temperature for 5 min. Samples were combined by pipetting and placed at room temperature for another 20 min. The plasmid-CellFectin II mixture was then added to a T-25 flask containing a layer of Sf9 cells covering about 70% of the surface, and incubated overnight. The next morning, the medium was replaced with fresh medium containing 50 μg/ml blasticidin. […] When culture was confluent, the recombinant cells were lifted and transferred to suspension cultures and grown until the exponential growth phase, and then stock cultures were frozen in liquid nitrogen. These frozen stock cell lines were thawed, cultivated for several passages in media containing 20 μg/ml blasticidin, and used for the ligand binding assays.
(§2) Two days before the binding assay, ~ 50,000 Sf9 cells expressing the DretNmU-Ra or -Rb from suspension cultures were dispensed into each well of a black 96-well plate (Corning C3603) and incubated at 28 °C overnight. At 48 h, cells were rinsed once with 100 μl of fresh medium without FBS. After removing the media, cells were incubated with 95 μl of 1 × FLIPR Calcium 6 reagent (Molecular Devices, USA) containing 2.5 mM probenecid at room temperature in the dark for 1 h. The Calcium 6 reagent-loaded cells were transferred to the Flexstation 3 multi-mode microplate reader (Molecular Devices) to measure fluorescence change (∆fluorescence) before and after loading 5 μl of peptide ligands (20×), detecting emission at 535 nm with excitation at 485 nm. Fluorescence measurements from each well on the column were taken every 5 s for 4 min. The peptide ligand was added by automatic pipettor once at 30 s from the beginning, and 5 μl of 5 μM ionomycin was added at 3 min to confirm calcium activity. Baseline fluorescence was determined by averaging 5 time points from each well prior to treatment with ligand and the resulting response was expressed as a percent increase in fluorescence relative to the baseline value.
(§3) For the initial screening and structure–activity tests, each cell line was exposed to a single concentration of 500 nM of each peptide or control. For the dosage-response assay, threefold serial dilutions of selected ligands with water were used, giving final ligand concentrations between 8 pM and 1.5 μM. The mean response from four wells receiving the same treatment in the same plate was regarded as one replicate, and at least three replicates from independent assays on different cell plates were analyzed. Data were transformed into a log scale and fit into the non-linear regression curve. EC50 values were obtained by statistical analysis using the sum of squares F-test function using GraphPad Prism version 8.0 (San Diego, CA, USA).

DretNmU-Rb = molecular target: T2, DretNmU-Rb (Deroceras reticulatum, UniProt A0A888YNJ5); assay: Calcium mobilisation (FLIPR Calcium 6 fluorescence) receptor activation assay, Sf9 cells stably expressing DretNmU-Rb; assay type: cell-based; settings: for Binding activity (receptor response, ∆fluorescence) at single concentration: 500 nM peptide, three to four replicates, result in words
T2 sequence (A0A888YNJ5 1-502): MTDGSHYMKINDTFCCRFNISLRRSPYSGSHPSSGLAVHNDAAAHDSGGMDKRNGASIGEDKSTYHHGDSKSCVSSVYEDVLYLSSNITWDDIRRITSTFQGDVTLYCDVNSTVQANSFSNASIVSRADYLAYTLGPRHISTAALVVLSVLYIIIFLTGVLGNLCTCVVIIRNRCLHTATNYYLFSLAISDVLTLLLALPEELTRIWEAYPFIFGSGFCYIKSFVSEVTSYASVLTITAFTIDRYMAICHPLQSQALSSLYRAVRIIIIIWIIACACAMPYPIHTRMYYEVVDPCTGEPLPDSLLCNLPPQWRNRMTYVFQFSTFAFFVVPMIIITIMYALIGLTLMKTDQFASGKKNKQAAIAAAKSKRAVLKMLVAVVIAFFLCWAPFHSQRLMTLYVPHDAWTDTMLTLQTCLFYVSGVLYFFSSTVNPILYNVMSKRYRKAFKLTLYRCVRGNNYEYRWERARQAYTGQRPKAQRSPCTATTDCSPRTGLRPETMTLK
Protocol: as §1, §2, §3

Deroceras reticulatum = assay: Injection bioassay of the peptides in the slug; assay type: in vivo; settings: n = 4; for Atypical behaviors after injection: 10 nmol peptide in 5 μl water injected into the foot, observed for initial 30 min, compared with water control; for Mortality after 3 days: 10 nmol peptide in 5 μl water injected into the foot of adult slugs, 18 °C
Protocol: Two peptides, QPPLPRYa and QPPVPRYa, were dissolved in purified water to obtain a 2 mM concentration and individually injected into the adult slugs (270–520 mg in weight). A Hamilton syringe was used to inject a dose of 10 nmol peptide in 5 μl water or water only for control into the posterior part of the foot of the slug (n = 4). The foot was chosen as the injection site in order to avoid possible damage to internal organs, which are primarily located underneath the mantle. […] Since the treated slugs secreted a large amount of the defensive mucus, weight loss was assessed by weighing the slugs on a VWR B2-Series Analytical Balance immediately before the treatment and again 3 days later. Post treatment weights were obtained after slugs were placed under wet conditions (slugs placed in a ventilated 8 oz plastic container lined with damp tissue paper) or under dry conditions (same container type without damp tissue paper). Slugs were placed under these conditions approximately 30 min after injection. These plastic containers were maintained in a growth chamber (Thermo Scientific Precision Model 818) at 18 °C and 12 h photoperiod. Statistical analysis was performed by One-way ANOVA followed by Dunnett’s multiple comparisons test using GraphPad Prism version 8.0 (GraphPad Software, CA, USA).

[1] = Sf9 cells stably expressing DretNmU-Ra
[2] = Sf9 cells stably expressing DretNmU-Ra, calcium fluorescence, threefold serial dilutions 8 pM to 1.5 μM, four to five replicates from independent assays, each the mean of four wells, read-out: EC50, normalized concentration-response
[3] = Sf9 cells stably expressing DretNmU-Rb
[4] = Sf9 cells stably expressing DretNmU-Rb, calcium fluorescence, threefold serial dilutions 8 pM to 1.5 μM, four to five replicates from independent assays, each the mean of four wells, read-out: EC50, normalized concentration-response

Row | Compound | Binding activity (receptor response, ∆fluorescence) at single concentration (DretNmU-Ra; [1]) | EC50 (DretNmU-Ra; [2]) | Binding activity (receptor response, ∆fluorescence) at single concentration (DretNmU-Rb; [3]) | EC50 (DretNmU-Rb; [4]) | EC50 (DretNmU-Ra) | EC50 (DretNmU-Rb) | Atypical behaviors after injection (Deroceras reticulatum) | Mortality after 3 days (Deroceras reticulatum; dry conditions) | Mortality after 3 days (Deroceras reticulatum; wet conditions)
1 | CC[C@H](C)[C@H](NC(=O)[C@H](CCCNC(=N)N)NC(=O)[C@@H]1CCCN1C(=O)[C@H](CCCNC(=N)N)NC(=O)[C@@H]1CCCN1C(=O)[C@@H](NC(=O)[C@H](C)N)C(C)C)C(N)=O [AVPRPRIa] (H-AVPRPRI-NH2; N-terminus assumed) | evoked distinct binding | 6.4 nM | evoked distinct binding | 12.4 nM |  |  |  |  | 
2 | CC(C)C[C@H](NC(=O)[C@@H]1CCCN1C(=O)[C@@H]1CCCN1C(=O)[C@@H](N)CC(N)=O)C(=O)N1CCC[C@H]1C(=O)N[C@@H](CCCNC(=N)N)C(=O)N[C@@H](Cc1ccc(O)cc1)C(N)=O [NPPLPRYa] (H-NPPLPRY-NH2; N-terminus assumed) |  | 32.2 nM |  | 25.1 nM |  |  |  |  | 
3 | CC(C)C[C@H](NC(=O)[C@@H]1CCCN1C(=O)[C@@H]1CCCN1C(=O)[C@@H](N)CCC(N)=O)C(=O)N1CCC[C@H]1C(=O)N[C@@H](CCCNC(=N)N)C(=O)N[C@@H](Cc1ccccc1)C(N)=O [QPPLPRFa] (H-QPPLPRF-NH2; N-terminus assumed) | retained normal activity | 55.1 nM | retained normal activity | 128 nM |  |  |  |  | 
4 | CC(C)C[C@H](NC(=O)[C@@H]1CCCN1C(=O)[C@@H]1CCCN1C(=O)[C@@H](N)CCC(N)=O)C(=O)N1CCC[C@H]1C(=O)N[C@@H](CCCNC(=N)N)C(=O)N[C@@H](Cc1ccc(O)cc1)C(N)=O [QPPLPRYa] (H-QPPLPRY-NH2; N-terminus assumed) | evoked distinct binding |  | evoked distinct binding |  | 1.4 nM | 4.1 nM | triggered a series of distinct, atypical behaviors | 100% | 50%
5 | CC(C)[C@H](NC(=O)[C@@H]1CCCN1C(=O)[C@@H]1CCCN1C(=O)[C@@H](N)CCC(N)=O)C(=O)N1CCC[C@H]1C(=O)N[C@@H](CCCNC(=N)N)C(=O)N[C@@H](Cc1ccc(O)cc1)C(N)=O [QPPVPRYa] (H-QPPVPRY-NH2) | evoked distinct binding |  | evoked distinct binding |  | 6.4 nM | 12.7 nM | triggered a series of distinct, atypical behaviors | 50% | 0%
6 | LPRYa [N-terminally truncated tetra-peptide of QPPLPRYa] | all activity was lost |  | all activity was lost |  |  |  |  |  | 
7 | PLPRYa [N-terminally truncated pentapeptide of QPPLPRYa] | gradual decrease of the binding ability |  | gradual decrease of the binding ability |  |  |  |  |  | 
8 | QPPLARYa [modified QPPLPRYa, alanine replacement of P5] | almost completely disappeared |  | almost completely disappeared |  |  |  |  |  | 
9 | QPPLPAYa [modified QPPLPRYa, alanine replacement of R6] | almost completely disappeared |  | almost completely disappeared |  |  |  |  |  | 
10 | QPPLPRAa [modified QPPLPRYa, alanine replacement of Y7] | almost completely disappeared |  | almost completely disappeared |  |  |  |  |  | 
11 | QPPLPRWa [modified QPPLPRYa, C-terminal Y replaced with W] | dramatically reduced in its binding activity; also recorded: activity was eliminated |  | dramatically reduced in its binding activity; also recorded: activity was eliminated |  |  |  |  |  | 
